Results taken from patent US20250034147A1, “MDM2 DEGRADERS AND USES THEREOF” (Kymera Therapeutics, Inc., priority 2021, published 2025).

Assays:
[1] = tested on: RS411 cells; assay: Cell Viability CTG Assay; format: cell-based; conditions: Homo sapiens, RS4-11, CellTiter Glo (CTG) cell viability, read-out: Average external-IC50
Experimental: Compounds or DMSO 60 nL were stamped to the cell plate as the platemap. RS411 cells were centrifuged at 800 rpm for 5 min, suspended with culture medium, and counted with Countess (Invitrogen). The cell density was adjusted to the recommend information. 30 μL of cell solution (1000 cells/well) was added to the assay plate as the platemap and 30 μL of media was added to column 2 and column 23 as the platemap. The plate was spun down briefly. The final concentration of the compounds started at 10 μM (3 fold dilution and 11 doses) and final DMSO concentration was 0.2%. The plate was spun down briefly and incubated at 37° C., 5% CO2 for 1 day. […] 30 μL CellTiter Glo reagent was added to each well and the plate was centrifuged at 1000 rpm for 30 sec. The plate was shaken for 1 min and centrifuged at 1000 rpm for 30 sec. The plate was incubated at RT for 10 min to stabilize the luminescent signal and the luminescence was read by EnVision.
The letter codes for IC50 indicate the concentration of compound required to affect 50% of cells: A (<0.005 μM), B (0.005-0.05 μM), C (0.05-0.5 μM), and D (>0.5 μM).

[2] = target: T1, HiBiT-tagged MDM2 (Homo sapiens, UniProt Q00987); assay: MDM2 HiBit HEK293T degradation; format: cell-based; conditions: HEK293T cells stably expressing C-terminally HiBiT-tagged MDM2; 4 h; read-out: MDM2 HiBit HEK293T degradation 4 h: Average external-Abs DC50
T1 construct: expressed in transfected cells
Method in brief: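 Degradation was measured in HEK293T cells stably expressing C-terminally HiBiT-tagged MDM2, a pool selected with 1 microgram/ml puromycin. A MDM2 tool degrader and HaloPROTAC3 served as positive controls. Potency is reported as DC50 in letter bins.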

T1 sequence (Q00987 whole entry): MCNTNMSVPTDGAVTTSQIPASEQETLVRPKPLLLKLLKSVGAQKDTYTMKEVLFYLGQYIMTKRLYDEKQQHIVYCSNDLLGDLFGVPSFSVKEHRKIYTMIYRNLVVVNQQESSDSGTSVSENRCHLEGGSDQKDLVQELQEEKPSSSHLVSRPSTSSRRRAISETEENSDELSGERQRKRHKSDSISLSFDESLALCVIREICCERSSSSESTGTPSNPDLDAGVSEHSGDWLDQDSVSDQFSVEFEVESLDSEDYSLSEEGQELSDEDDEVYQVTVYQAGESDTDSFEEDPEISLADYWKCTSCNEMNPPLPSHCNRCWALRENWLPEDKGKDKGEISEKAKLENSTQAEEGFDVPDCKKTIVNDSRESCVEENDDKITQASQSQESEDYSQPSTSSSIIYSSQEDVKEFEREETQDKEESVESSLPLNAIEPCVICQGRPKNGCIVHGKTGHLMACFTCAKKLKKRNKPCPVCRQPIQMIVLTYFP

| IC50 [1] | DC50 [2] | Compound |
| --- | --- | --- |
| < 5 nM | 10 to 100 nM | COc1cc2c(cc1OC(C)C)[C@H](c1ccc(Cl)cc1)N(c1ccc(N(C)CC3CCN(CCCc4ccc5c(c4)n(C)c(=O)n5C4CCC(=O)NC4=O)CC3)cc1)C(=O)C2 (stereo partly drawn) [I-53] |
| < 5 nM | < 10 nM | Cc1ccc2c(c1)NC(=O)[C@]21[C@@H](c2cccc(Cl)c2F)[C@H](C(=O)N[C@H]2CC[C@H](C(=O)N3CCN(CCCc4ccc5c(c4)n(C)c(=O)n5C4CCC(=O)NC4=O)CC3)CC2)NC12CCCCC2 (stereo partly drawn) [I-57] |
| > 500 nM | > 1000 nM | COc1cc2c(cc1OC(C)C)C(c1ccc(Cl)cc1)N(C1CCC(N(C)CC3CCN(CCCCCCc4ccc5c(c4)n(C)c(=O)n5C4CCC(=O)NC4=O)CC3)CC1)C(=O)C2 (stereo not drawn) [I-61] |
| > 500 nM | > 1000 nM | Cn1c(=O)n(C2CCC(=O)NC2=O)c2ccc(C3CCN(C[C@H]4CC[C@H](NC(=O)[C@@H]5NC6(CCCCC6)[C@@]6(C(=O)Nc7cc(CC8CC8)ccc76)[C@H]5c5cccc(Cl)c5F)CC4)CC3)cc21 (stereo partly drawn) [I-94] |
| < 5 nM | < 10 nM | Cn1c(=O)n(C2CCC(=O)NC2=O)c2ccc(CC[C@@H]3CN(C[C@H]4CC[C@H](NC(=O)[C@@H]5NC6(CCCCC6)[C@@]6(C(=O)Nc7cc(Cl)ccc76)[C@H]5c5cccc(Cl)c5F)CC4)CCO3)cc21 (stereo partly drawn) [I-21] |
| 5 to 50 nM | 10 to 100 nM | Cn1c(=O)n(C2CCC(=O)NC2=O)c2ccc(C3CCN(C(=O)CCCN4CCC(NC(=O)[C@@H]5NC6(CCCCC6)[C@@]6(C(=O)Nc7cc(Cl)ccc76)[C@H]5c5cccc(Cl)c5F)CC4)CC3)cc21 (stereo partly drawn) [I-29] |
| 50 to 500 nM | < 10 nM | Cn1c(=O)n(C2CCC(=O)NC2=O)c2ccc(C3CN(Cc4ccc(NC(=O)[C@@H]5NC6(CCCCC6)[C@@]6(C(=O)Nc7cc(Cl)ccc76)[C@H]5c5cccc(Cl)c5F)cc4)C3)cc21 (stereo partly drawn) [I-34] |
| < 5 nM | < 10 nM | COc1cc2c(cc1OC(C)C)[C@H](c1ccc(Cl)cc1)N(c1ccc(N(C)C[C@H]3CC[C@H](N4CCC(c5ccc6c(c5)n(C)c(=O)n6C5CCC(=O)NC5=O)CC4)CC3)cc1)C(=O)C2 (stereo partly drawn) [I-73] |
| > 500 nM | < 10 nM | CCOc1ccc2c(c1)NC(=O)C21[C@@H](c2cccc(Cl)c2F)[C@H](C(=O)N[C@H]2CC[C@H](C(=O)C3CCN(CCCc4ccc5c(c4)n(C)c(=O)n5C4CCC(=O)NC4=O)CC3)CC2)NC12CCCCC2 (stereo partly drawn) [I-96] |
| 5 to 50 nM | < 10 nM | CC1(C)CCC2(CC1)NC(C(=O)NC1CCC(CN3CCN(CC#Cc4ccn5c(N6CCC(=O)NC6=O)cnc5c4)CC3)CC1)[C@H](c1ccnc(Cl)c1F)[C@]21C(=O)Nc2cc(Cl)ccc21 (stereo partly drawn) [I-50] |
| < 5 nM | < 10 nM | COc1cc2c(cc1OC(C)C)[C@H](c1ccc(Cl)cc1)N(c1ccc(N(C)C[C@H]3CC[C@H](N4CCN(c5ccc6c(c5)n(C)c(=O)n6C5CCC(=O)NC5=O)CC4)CC3)cc1)C(=O)C2 (stereo partly drawn) [I-71, 3-[5-[4-[4-[[4-[(1S)-1-(4-chlorophenyl)-7-isopropoxy-6-methoxy-3-oxo-1,4-dihydroisoquinolin-2-yl]-N-methyl-anilino]methyl]cyclohexyl]piperazin-1-yl]-3-methyl-2-oxo-benzimidazol-1-yl]piperidine-2,6-dione] |
| 5 to 50 nM | < 10 nM | Cn1c(=O)n(C2CCC(=O)NC2=O)c2ccc(CN3CC(OC4CN(C[C@H]5CC[C@H](NC(=O)[C@@H]6NC7(CCCCC7)[C@@]7(C(=O)Nc8cc(Cl)ccc87)[C@H]6c6cccc(Cl)c6F)CC5)C4)C3)cc21 (stereo partly drawn) [I-59] |
| < 5 nM | < 10 nM | Cn1c(=O)n(C2CCC(=O)NC2=O)c2ccc(C3CN(C[C@H]4CC[C@H](NC(=O)[C@@H]5NC6(CCCCC6)[C@@]6(C(=O)Nc7cc(Cl)ccc76)[C@H]5c5cccc(Cl)c5F)CC4)C3)cc21 (stereo partly drawn) [I-24] |
| 5 to 50 nM | 100 to 1000 nM | O=C(O)Cn1c(=O)n(C2CCC(=O)NC2=O)c2ccc(C3CCN(C(=O)[C@H]4CC[C@H](NC(=O)[C@@H]5NC6(CCCCC6)[C@@]6(C(=O)Nc7cc(Cl)ccc76)[C@H]5c5cccc(Cl)c5F)CC4)CC3)cc21 (stereo partly drawn) [I-99] |
| < 5 nM | < 10 nM | Cn1c(=O)n(C2CCC(=O)NC2=O)c2ccc(C3CCN(C(=O)CN4CCC(NC(=O)[C@@H]5NC6(CCCCC6)[C@@]6(C(=O)Nc7cc(Cl)ccc76)[C@H]5c5cccc(Cl)c5F)CC4)CC3)cc21 (stereo partly drawn) [I-27] |
| 5 to 50 nM | 100 to 1000 nM | Cn1c(=O)n(C2CCC(=O)NC2=O)c2ccc(CN3CCC(NC(=O)[C@@H]4NC5(CCCCC5)[C@@]5(C(=O)Nc6cc(Cl)ccc65)[C@H]4c4cccc(Cl)c4F)CC3)cc21 (stereo partly drawn) [I-98] |
| < 5 nM | < 10 nM | Cn1c(=O)n([C@H]2CCC(=O)NC2=O)c2ccc(C3CCN(C(=O)[C@H]4CC[C@H](NC(=O)[C@@H]5NC6(CCCCC6)[C@@]6(C(=O)Nc7cc(Cl)ccc76)[C@H]5c5cccc(Cl)c5F)CC4)CC3)cc21 (single isomer, unassigned) [I-103] |

| IC50 [1] | DC50 [2] | Compound |
| --- | --- | --- |
| < 5 nM | < 10 nM | CN1[C@@H](C(=O)N[C@H]2CC[C@H](CN3CCC4(CC3)CN(CCc3ccc5c(c3)n(C)c(=O)n5C3CCC(=O)NC3=O)C4)CC2)[C@H](c2ccnc(Cl)c2F)[C@]2(C(=O)Nc3cc(Cl)ccc32)C12CCC(C)(C)CC2 (stereo partly drawn) [I-43] |
| 5 to 50 nM | < 10 nM | Cn1c(=O)n(C2CCC(=O)NC2=O)c2ccc(CCN3CCC(NC(=O)[C@@H]4NC5(CCCCC5)[C@@]5(C(=O)Nc6cc(Cl)ccc65)[C@H]4c4cccc(Cl)c4F)CC3)cc21 (stereo partly drawn) [I-97] |
| < 5 nM | < 10 nM | Cn1c(=O)n(C2CCC(=O)NC2=O)c2ccc(N3CCN(CC4CCN(C[C@H]5CC[C@H](NC(=O)[C@@H]6NC7(CCCCC7)[C@@]7(C(=O)Nc8cc(Cl)ccc87)[C@H]6c6cccc(Cl)c6F)CC5)CC4)CC3)cc21 (stereo partly drawn) [I-70] |
| < 5 nM | < 10 nM | Cn1c(=O)n(C2CCC(=O)NC2=O)c2ccc(N3CCC(OC4CCN(C[C@H]5CC[C@H](NC(=O)[C@@H]6NC7(CCCCC7)[C@@]7(C(=O)Nc8cc(Cl)ccc87)[C@H]6c6cccc(Cl)c6F)CC5)CC4)CC3)cc21 (stereo partly drawn) [I-18] |
| 5 to 50 nM | 10 to 100 nM | COc1cc2c(cc1OC(C)C)[C@H](c1ccc(Cl)cc1)N(c1ccc(N(C)C[C@H]3CC[C@H](N4C[C@@H]5C[C@H]4CN5CCc4ccc5c(c4)n(C)c(=O)n5C4CCC(=O)NC4=O)CC3)cc1)C(=O)C2 (stereo partly drawn) [I-65] |
| < 5 nM | < 10 nM | CN1CCN(C[C@H]2CC[C@H](NC(=O)[C@@H]3NC4(CCCCC4)[C@@]4(C(=O)Nc5cc(Cl)ccc54)[C@H]3c3cccc(Cl)c3F)CC2)C[C@H]1CCc1ccc2c(c1)n(C)c(=O)n2C1CCC(=O)NC1=O (stereo partly drawn) [I-1] |
| 50 to 500 nM | > 1000 nM | COc1cc2c(cc1OC(C)C)[C@H](c1ccc(Cl)cc1)N(c1ccc(N(C)CCC3CCN(CCCCC#Cc4cccn5c(N6CCC(=O)NC6=O)cnc45)CC3)cc1)C(=O)C2 [I-22] |
| 5 to 50 nM | < 10 nM | Cn1c(=O)n(C2CCC(=O)NC2=O)c2ccc(CN3CCN(C[C@H]4CC[C@H](NC(=O)[C@@H]5NC6(CCCCC6)[C@@]6(C(=O)Nc7cc(Cl)ccc76)[C@H]5c5cccc(Cl)c5F)CC4)CC3)cc21 (stereo partly drawn) [I-69] |
| 5 to 50 nM | < 10 nM | Cn1c(=O)n(C2CCC(=O)NC2=O)c2ccc(CCCC3(C(=O)O)CCN(C[C@H]4CC[C@H](NC(=O)[C@@H]5NC6(CCCCC6)[C@@]6(C(=O)Nc7cc(Cl)ccc76)[C@H]5c5cccc(Cl)c5F)CC4)CC3)cc21 (stereo partly drawn) [I-38] |
| 5 to 50 nM | < 10 nM | CN1[C@@H](C(=O)N[C@H]2CC[C@H](CN3CC4(CCN(CCc5ccc6c(c5)n(C)c(=O)n6C5CCC(=O)NC5=O)CC4)C3)CC2)[C@H](c2cccc(Cl)c2F)[C@]2(C(=O)Nc3cc(Cl)ccc32)C12CCCCC2 (stereo partly drawn) [I-75] |
| < 5 nM | < 10 nM | Cn1c(=O)n(C2CCC(=O)NC2=O)c2ccc(C3CCN(C[C@H]4CC[C@H](NC(=O)[C@@H]5NC6(CCC(C)(C)CC6)[C@@]6(C(=O)Nc7cc(Cl)ccc76)[C@H]5c5ccnc(Cl)c5F)CC4)CC3)cc21 (stereo partly drawn) [I-25] |
| 5 to 50 nM | 10 to 100 nM | O=C(O)CCn1c(=O)n(C2CCC(=O)NC2=O)c2ccc(C3CCN(C(=O)[C@H]4CC[C@H](NC(=O)[C@@H]5NC6(CCCCC6)[C@@]6(C(=O)Nc7cc(Cl)ccc76)[C@H]5c5cccc(Cl)c5F)CC4)CC3)cc21 (stereo partly drawn) [I-82] |
| < 5 nM | < 10 nM | CN1[C@@H](C(=O)N[C@H]2CC[C@H](CN3CCC(c4ccc5c(c4)n(C)c(=O)n5C4CCC(=O)NC4=O)CC3)CC2)[C@H](c2cccc(Cl)c2F)[C@]2(C(=O)Nc3cc(Cl)ccc32)C12CCCCC2 (stereo partly drawn) [I-17] |
| > 500 nM | 10 to 100 nM | Cn1c(=O)n(C2CCC(=O)NC2=O)c2ccc(C3CCN(C[C@H]4CC[C@H](NC(=O)[C@@H]5NC6(CCCCC6)[C@@]6(C(=O)Nc7cc(Cl)ccc76)[C@H]5c5cccc(Cl)c5F)CC4)C[C@H]3F)cc21 (stereo partly drawn) [I-83] |
| 5 to 50 nM | < 10 nM | Cn1c(=O)n(C2CCC(=O)NC2=O)c2ccc(CN3CCC(OC4CN(C[C@H]5CC[C@H](NC(=O)[C@@H]6NC7(CCCCC7)[C@@]7(C(=O)Nc8cc(Cl)ccc87)[C@H]6c6cccc(Cl)c6F)CC5)C4)CC3)cc21 (stereo partly drawn) [I-49] |
| 5 to 50 nM | < 10 nM | Cn1c(=O)n(C2CCC(=O)NC2=O)c2ccc(N3CC(N4CCN(C(=O)[C@H]5CC[C@H](NC(=O)[C@@H]6NC7(CCCCC7)[C@@]7(C(=O)Nc8cc(Cl)ccc87)[C@H]6c6cccc(Cl)c6F)CC5)CC4)C3)cc21 (stereo partly drawn) [I-19] |
